Measured values published in article PMC9779571, “Guanidine Derivatives Containing the Chalcone Skeleton Are Potent Antiproliferative Compounds against Human Leukemia Cells” (International Journal of Molecular Sciences, 2022).

Key:
[1] = system: human peripheral blood mononuclear cells (PBMC); assay: Cell viability of quiescent and PHA-activated PBMC; type: cell-based; conditions: up to 10 µM, 24 h
From the text: U-937, HL-60, MOLT-3, NALM-6, and SK-MEL-1 cells were from DSMZ (German Collection of Microorganisms and Cell Cultures, Braunschweig, Germany). U-937/Bcl-2 cells were kindly provided by Dr. Jacqueline Bréard (INSERM U749, Faculté de Pharmacie Paris-Sud, Châtenay-Malabry, France). The U-937 is a pro-monocytic, human promyelocytic leukemia cell line that was isolated from a histiocytic lymphoma. HL-60 is a human acute myeloid leukemia cell line. MOLT-3 is a human acute lymphoblastic leukemia cell line. NALM-6 is a human B cell precursor leukemia. SK-MEL-1 is a human melanoma cell line growing singly or in clumps (occasional giant, polynucleated cell) in suspension. […] The cytotoxicity of the synthetic compounds was evaluated by colorimetric 3-(4,5-dimethyl-2-thiazolyl-)-2,5-diphenyl-2H-tetrazolium bromide (MTT) assay as previously described. […] Sodium dodecyl sulfate (10% w/v) in 0.05 M HCl was added to solubilize the reaction products and the absorbance was measured at 570 nm with a reference wavelength of […] using an ELISA reader (Bio-Rad, Hercules, CA, USA). […]
Figure 2 (a) Dose-response study of hybrid chalcone–guanidines on human U-937 leukemia cell viability. Cells were cultured in the presence of increasing concentrations of selected guanidines for 72 h, and thereafter cell viability was determined by the MTT assay. […]

PBMC = assay: Annexin V-FITC/propidium iodide flow cytometry, PBMC; type: cell-based, human; conditions: 24 h; for annexin V-FITC positive cells with respect to control: 3 µM; for fold increase of annexin V-FITC positive cells with respect to control / annexin V-FITC positive cells: 10 µM; for annexin V-FITC positive cells: control 9.3%
From the text: (§1) U-937, HL-60, MOLT-3, NALM-6, and SK-MEL-1 cells were from DSMZ (German Collection of Microorganisms and Cell Cultures, Braunschweig, Germany). U-937/Bcl-2 cells were kindly provided by Dr. Jacqueline Bréard (INSERM U749, Faculté de Pharmacie Paris-Sud, Châtenay-Malabry, France). The U-937 is a pro-monocytic, human promyelocytic leukemia cell line that was isolated from a histiocytic lymphoma. HL-60 is a human acute myeloid leukemia cell line. MOLT-3 is a human acute lymphoblastic leukemia cell line. NALM-6 is a human B cell precursor leukemia. SK-MEL-1 is a human melanoma cell line growing singly or in clumps (occasional giant, polynucleated cell) in suspension. Cells were cultured in RPMI 1640 medium containing 10% (v/v) heat-inactivated fetal bovine serum, 100 μg/mL streptomycin, and 100 U/mL penicillin, incubated at 37 °C in a humidified atmosphere containing 5% CO2 as described. The doubling times of the cell lines were 24 h in HL-60, 30 h in U-937, U-937/Bcl-2, 40 h in MOLT-3 and NALM-6, and several days in SK-MEL-1 cells. Human peripheral blood mononuclear cells (PBMC) were isolated from heparin-anticoagulated blood of healthy volunteers by centrifugation with Ficoll-Paque Plus (GE Healthcare Bio-Sciences AB, Uppsala, Sweden). PBMC were also stimulated with phytohemagglutinin (2 µg/mL) for 48 h before the experimental treatment. The trypan blue exclusion method was used for counting the cells by a hemocytometer with 95% viability in all the experiments. Compounds were dissolved in dimethyl sulfoxide (DMSO) and kept under dark conditions at 25 °C. […] The cytotoxicity of the synthetic compounds was evaluated by colorimetric 3-(4,5-dimethyl-2-thiazolyl-)-2,5-diphenyl-2H-tetrazolium bromide (MTT) assay as previously described. Briefly, cells (5000 per well) were incubated with increasing concentrations of compounds for 72 h into a 96-well plate. Then, the supernatants were removed and 0.5 mg/mL MTT was added and incubated for 4 h at 37 °C. Sodium dodecyl sulfate (10% w/v) in 0.05 M HCl was added to solubilize the reaction products and the absorbance was measured at 570 nm with a reference wavelength of […] using an ELISA reader (Bio-Rad, Hercules, CA, USA). The IC50 values (concentrations inducing a 50% inhibition of cell viability) were determined graphically for each experiment by a nonlinear regression using the curve fitting routine implemented within the software Prism 5.0 (GraphPad, La Jolla, CA, USA).
Cells (2.5 × 10^5) were centrifuged for 10 min at 500× g, washed with cold PBS, fixed with ice-cold 75% ethanol and stored at −20 °C overnight. Samples were then centrifuged at 500× g for 10 min at 4 °C, washed with PBS, resuspended in 200 μL of PBS containing 100 μg/mL RNase and 50 μg/mL propidium iodide and incubated for 1 h in the dark. The DNA content was analyzed by flow cytometry with a BD FACSVerse^TM cytometer (BD Biosciences, San Jose, CA, USA). Apoptosis was also evaluated by flow cytometric analysis of double-staining annexin V-FITC and propidium iodide cells as previously described.

NALM-6 cells = assay: MTT cytotoxicity assay, NALM-6; type: cell-based, human; conditions: 72 h, MTT, means ± SEM
From the text: as §1

| Structure (SMILES) | cytotoxicity against proliferating and quiescent lymphocytes (PBMC) versus U-937 [1] | annexin V-FITC positive cells with respect to control (PBMC) | fold increase of annexin V-FITC positive cells with respect to control (PBMC) | annexin V-FITC positive cells (PBMC) | IC50 (NALM-6 cells; Homo sapiens, NALM-6, 72 h) | IC50 (NALM-6 cells) |
| --- | --- | --- | --- | --- | --- | --- |
| Cc1ccc(S(=O)(=O)NC(=Nc2ccc(/C=C/C(=O)c3c(O)cccc3OCc3ccccc3)cc2)N2CCN(C)CC2)cc1 [Compound 6f] | lower cytotoxicity | hardly increased | 3 fold | 27% | 2.7 µM |  |
| O=C(/C=C/c1ccc(N=C(Nc2ccccc2)N2CCCCC2)cc1)c1c(O)cccc1OCc1ccccc1 [Compound 6i] | lower cytotoxicity | hardly increased | 1.4 fold | 13% | ~10 µM | 10.8 ± 0.5 µM |
